Measured values: ChEMBL document CHEMBL1921678, “The discovery of novel cyclohexylamide CCR2 antagonists” (Bioorg Med Chem Lett, 2011)
Activity calls are given as the source filed them. No cut-off for these calls is given here.

How the values were obtained:
[1] = biological target: T1, Voltage-gated inwardly rectifying potassium channel KCNH2 (Homo sapiens, UniProt Q12809); test: Inhibition of human ERG
[2] = biological target: C-C chemokine receptor type 2 (Homo sapiens, UniProt P41597); test: Antagonist activity at human CCR2; type: functional
[3] = Half life in mouse at 2 mg/kg, iv; type: ADME, organism-based; design: dose 2 mg/kg, route intravenous; settings: in vivo
Cavia porcellus [4] = test: Cardiotoxicity in guinea pig hemodynamic model assessed as QTc at 10 mg/kg, iv; type: toxicity, organism-based; design: dose 10 mg/kg, route intravenous; settings: in vivo
[5] = biological target: T1, Voltage-gated inwardly rectifying potassium channel KCNH2; test: Inhibition of human ERG by patch clamp assay
[6] = Initial plasma concentration in mouse at 2 mg/kg, iv; type: ADME, organism-based; design: dose 2 mg/kg, route intravenous
[7] = Oral bioavailability in mouse at 10 mg/kg; type: ADME, organism-based; settings: in vivo
Cavia porcellus [8] = test: Cardiotoxicity in guinea pig hemodynamic model assessed as heart rate at 10 mg/kg, iv; type: toxicity, organism-based; design: dose 10 mg/kg, route intravenous; settings: in vivo
Cavia porcellus [9] = test: Cardiotoxicity in guinea pig hemodynamic model assessed as QRS duration at 10 mg/kg, iv; type: toxicity, organism-based; design: dose 10 mg/kg, route intravenous; settings: in vivo
[10] = Cmax in mouse at 10 mg/kg, po; type: ADME, organism-based; design: dose 10 mg/kg, route oral; settings: in vivo
Cavia porcellus [11] = test: Cardiotoxicity in guinea pig hemodynamic model assessed as mean arterial pressure at 10 mg/kg, iv; type: toxicity, organism-based, Artery; design: dose 10 mg/kg, route intravenous; settings: in vivo
[12] = biological target: T1, Voltage-gated inwardly rectifying potassium channel KCNH2; test: Binding affinity to human ERG
[13] = Clearance in mouse at 2 mg/kg, iv; type: ADME, organism-based; design: dose 2 mg/kg, route intravenous; settings: in vivo
[14] = Half life in mouse at 10 mg/kg, po; type: ADME, organism-based; design: dose 10 mg/kg, route oral; settings: in vivo
Cavia porcellus [15] = test: Cardiotoxicity in guinea pig hemodynamic model assessed as QT interval at 10 mg/kg, iv; type: toxicity, organism-based; design: dose 10 mg/kg, route intravenous; settings: in vivo
[16] = AUC in mouse at 10 mg/kg, po; type: ADME, organism-based; design: dose 10 mg/kg, route oral; settings: plasma
Cavia porcellus [17] = test: Cardiotoxicity in guinea pig hemodynamic model assessed as PR interval at 10 mg/kg, iv; type: toxicity, organism-based; design: dose 10 mg/kg, route intravenous; settings: in vivo
[18] = Volume of distribution at steady state in mouse at 2 mg/kg, iv; type: ADME, organism-based; design: dose 2 mg/kg, route intravenous; settings: in vivo, read-out: Vdss
[19] = biological target: C-C chemokine receptor type 2 (Mus musculus) (UniProt P51683); test: Antagonist activity at mouse CCR2; type: functional
Mus musculus = test: Antiinflammatory activity in human CCR2 transgenic C57BL/6 mouse assessed as reduction of thioglycollate-induced peritonitis at 30 mg/kg, po; type: functional, organism-based; design: dose 30 mg/kg

Sequence of C-C chemokine receptor type 2 (P41597 whole entry): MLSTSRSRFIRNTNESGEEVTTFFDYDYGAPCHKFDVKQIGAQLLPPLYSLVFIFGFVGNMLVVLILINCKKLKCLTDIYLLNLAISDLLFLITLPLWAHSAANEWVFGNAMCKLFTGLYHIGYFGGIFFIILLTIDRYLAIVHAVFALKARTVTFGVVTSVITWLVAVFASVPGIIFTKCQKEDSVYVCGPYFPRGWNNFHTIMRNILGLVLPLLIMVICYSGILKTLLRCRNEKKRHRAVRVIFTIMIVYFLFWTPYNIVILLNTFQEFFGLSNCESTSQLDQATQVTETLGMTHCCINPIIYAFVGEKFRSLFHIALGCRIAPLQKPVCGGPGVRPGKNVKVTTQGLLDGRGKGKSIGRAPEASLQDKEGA
T1 sequence (Q12809 whole entry): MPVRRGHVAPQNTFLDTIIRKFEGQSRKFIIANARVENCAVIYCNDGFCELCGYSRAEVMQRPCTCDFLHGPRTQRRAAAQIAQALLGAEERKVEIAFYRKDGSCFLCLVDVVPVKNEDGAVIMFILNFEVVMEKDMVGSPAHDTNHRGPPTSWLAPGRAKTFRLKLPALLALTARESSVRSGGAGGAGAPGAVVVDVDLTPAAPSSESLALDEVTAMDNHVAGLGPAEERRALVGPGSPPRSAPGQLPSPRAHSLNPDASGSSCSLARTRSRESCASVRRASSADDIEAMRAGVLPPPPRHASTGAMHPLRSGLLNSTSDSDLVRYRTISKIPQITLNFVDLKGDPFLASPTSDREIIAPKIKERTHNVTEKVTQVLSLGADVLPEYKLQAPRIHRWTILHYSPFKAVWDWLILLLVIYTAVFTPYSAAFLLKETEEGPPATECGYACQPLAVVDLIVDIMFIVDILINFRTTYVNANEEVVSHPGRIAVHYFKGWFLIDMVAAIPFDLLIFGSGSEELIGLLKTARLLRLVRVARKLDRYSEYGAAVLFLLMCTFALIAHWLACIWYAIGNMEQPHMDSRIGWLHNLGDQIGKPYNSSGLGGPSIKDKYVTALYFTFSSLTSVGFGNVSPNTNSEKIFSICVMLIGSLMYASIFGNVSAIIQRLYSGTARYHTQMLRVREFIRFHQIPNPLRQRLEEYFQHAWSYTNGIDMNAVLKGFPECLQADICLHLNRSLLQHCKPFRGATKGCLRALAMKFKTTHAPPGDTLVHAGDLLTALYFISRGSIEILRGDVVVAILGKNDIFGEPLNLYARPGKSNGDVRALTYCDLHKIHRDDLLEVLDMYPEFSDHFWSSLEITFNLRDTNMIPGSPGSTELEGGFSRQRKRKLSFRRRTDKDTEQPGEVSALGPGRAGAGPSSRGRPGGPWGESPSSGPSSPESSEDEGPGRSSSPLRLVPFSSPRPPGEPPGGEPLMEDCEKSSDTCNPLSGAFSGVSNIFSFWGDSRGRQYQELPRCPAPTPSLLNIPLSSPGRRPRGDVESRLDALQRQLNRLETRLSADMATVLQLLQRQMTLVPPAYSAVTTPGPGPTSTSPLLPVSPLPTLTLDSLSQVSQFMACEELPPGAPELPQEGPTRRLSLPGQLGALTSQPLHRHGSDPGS
Sequence of C-C chemokine receptor type 2 (Mus musculus) (P51683 whole entry, looked up): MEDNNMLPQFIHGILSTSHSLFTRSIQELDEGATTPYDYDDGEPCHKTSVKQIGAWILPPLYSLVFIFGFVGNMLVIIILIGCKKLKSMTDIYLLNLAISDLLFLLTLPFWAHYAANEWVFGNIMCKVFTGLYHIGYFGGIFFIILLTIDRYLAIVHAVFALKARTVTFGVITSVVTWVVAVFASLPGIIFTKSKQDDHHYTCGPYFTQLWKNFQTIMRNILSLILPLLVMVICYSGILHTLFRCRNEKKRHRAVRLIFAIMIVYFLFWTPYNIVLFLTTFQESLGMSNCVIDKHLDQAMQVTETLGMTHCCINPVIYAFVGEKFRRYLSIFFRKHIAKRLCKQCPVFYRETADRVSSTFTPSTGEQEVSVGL

Structure (SMILES)	IC50 [2] [nM]	INH [1] [µM]	other results
NC(=O)C(NC1CCC(c2c[nH]c3ccccc23)CC1)C1CCN(C(=O)c2ccccc2)CC1 (centres undefined)	> 25000	5.471	
NC(=O)C(NC1CCC(c2c[nH]c3ncccc23)CC1)C1CCN(C(=O)/C=C/c2cc(F)c(F)c(F)c2)CC1 (centres undefined)		8.3	
NC(=O)C(NC1CCC(c2c[nH]c3ccccc23)CC1)C1CCN(C(=O)/C=C/c2cc(F)cc(F)c2)CC1 (racemic) [listing 1 of 2 here]		4.906	half-life [3]: 1.9 h; Activity (Cavia porcellus [4]): Non-toxic; INH [5]: 600 nM; C0 [6]: 1020 ng/mL; bioavailability [7]: 50%; Activity (Cavia porcellus [8]): Non-toxic; Activity (Cavia porcellus [9]): Non-toxic; Cmax [10]: 531 ng/mL; Activity (Cavia porcellus [11]): Non-toxic; INH [12]: 8 µM; clearance [13]: 31 mL/min/kg; half-life [14]: 2.4 h; Activity (Cavia porcellus [15]): Non-toxic; AUC [16]: 2420 ng·h/mL; Activity (Cavia porcellus [17]): Non-toxic; Vd [18]: 3.71 L/kg
CN(C)C(=O)C(NC1CCC(c2c[nH]c3ccccc23)CC1)C1CCN(C(=O)/C=C/c2cc(F)c(F)c(F)c2)CC1 (centres undefined)		4.4	
O=C(NO)C(NC1CCC(c2c[nH]c3ccccc23)CC1)C1CCN(C(=O)/C=C/c2cc(F)c(F)c(F)c2)CC1 (centres undefined)		41	
NC(=O)C(NC1CCC(c2c[nH]c3ccccc23)CC1)C1CCN(C(=O)/C=C/c2cc(F)cc(F)c2)CC1 (trans isomer)		6.6	
NC(=O)C(NC1CCC(c2c[nH]c3ccccc23)CC1)C1CCN(C(=O)C2CC2c2ccccc2)CC1 (mixture of isomers)	1300		
NC(=O)C(NC1CCC(c2c[nH]c3ccccc23)CC1)C1CCN(C(=O)CCc2ccccc2)CC1 (centres undefined)	> 25000		
NC(=O)C(NC1CCC(c2c[nH]c3ccccc23)CC1)C1CCN(C(=O)/C=C/c2ccccc2F)CC1 (centres undefined)		4.128	
NC(=O)C(NC1CCC(c2c[nH]c3ccccc23)CC1)C1CCN(C(=O)Cc2ccccc2)CC1 (centres undefined)	> 25000	17.636	
NC(=O)C(NC1CCC(c2c[nH]c3ccccc23)CC1)C1CCN(C(=O)/C=C/c2cc(F)cc(F)c2)CC1 (racemic) [listing 2 of 2 here]			inhibition [19]: inactive; Activity (Mus musculus): Active
NC(=O)C(NC1CCC(c2c[nH]c3ccccc23)CC1)C1CCN(C(=O)/C=C/c2ccccc2)CC1 (centres undefined)		7.35	
NC(=O)C(NC1CCC(c2c[nH]c3ccccc23)CC1)C1CCN(C(=O)/C=C/c2ccc(OC(F)(F)F)cc2)CC1 (centres undefined)		1.39	
NC(=O)C(NC1CCC(c2c[nH]c3ccccc23)CC1)C1CCN(C(=O)/C=C\c2cc(F)cc(F)c2)CC1 (cis isomer)		2.2	
CN(C)c1ccc(/C=C/C(=O)N2CCC(C(NC3CCC(c4c[nH]c5ccccc45)CC3)C(N)=O)CC2)cc1 (centres undefined)	1890	> 50	
NC(=O)C(NC1CCC(c2c[nH]c3ccccc23)CC1)C1CCN(C(=O)/C=C/c2cc(F)c(F)c(F)c2)CC1 (centres undefined)		3.3	
O=C(O)C(C1CCN(C(=O)/C=C/c2cc(F)c(F)c(F)c2)CC1)N1CCC(c2c[nH]c3ccccc23)CC1 (centres undefined)		1.5	
NC(=O)C(NC1CCC(c2c[nH]c3ccccc23)CC1)C1CCN(C(=O)/C=C/c2cc(F)cc(F)c2)CC1 (single isomer, unassigned; (-))		20.375	
NC(=O)C(NC1CCC(c2c[nH]c3ccccc23)CC1)C1CCN(C(=O)/C=C/c2ccc(C(F)(F)F)cc2)CC1 (centres undefined)		1.08	
NC(=O)C(NC1CCC(c2c[nH]c3ccccc23)CC1)C1CCN(C(=O)/C=C/c2ccc(Cl)cc2)CC1 (centres undefined)		0.87	
CNC(=O)C(NC1CCC(c2c[nH]c3ccccc23)CC1)C1CCN(C(=O)/C=C/c2cc(F)c(F)c(F)c2)CC1 (centres undefined)		5.4	
O=C1NC2(CCC(c3c[nH]c4ccccc34)CC2)NC1C1CCN(C(=O)/C=C/c2cc(F)c(F)c(F)c2)CC1 (centres undefined)	5200		
NC(=O)C(NC1CCC(c2c[nH]c3ccccc23)CC1)C1CCN(C(=O)Nc2ccccc2)CC1 (centres undefined)	9570	14.784	
NC(=O)C(NC1CCC(c2c[nH]c3ccccc23)CC1)C1CCN(Cc2ccccc2)CC1 (centres undefined)	> 25000	1.769	
COc1ccc(C2CCC(NC(C(N)=O)C3CCN(C(=O)/C=C/c4cc(F)c(F)c(F)c4)CC3)CC2)cn1 (centres undefined)		11.7	

More lines, main results first:

IC50 [2] [nM]	Structure (SMILES)	INH [1] [µM]	other results
64	NC(=O)C(NC1CCC(c2c[nH]c3ccccc23)CC1)C1CCN(C(=O)/C=C/c2cccc(F)c2)CC1 (centres undefined)	2.076	
950	NC(=O)C(NC1CCC(C2CNc3ccccc32)CC1)C1CCN(C(=O)/C=C/c2cc(F)c(F)c(F)c2)CC1 (centres undefined)	4.2	
8600	CC(NC1CCC(c2c[nH]c3ccccc23)CC1)C1CCN(C(=O)/C=C/c2cc(F)c(F)c(F)c2)CC1 (centres undefined)	0.29	
83	NC(=O)C(NC1CCC(c2c[nH]c3ccncc23)CC1)C1CCN(C(=O)/C=C/c2cc(F)c(F)c(F)c2)CC1 (centres undefined)	0.97	
38	NC(=O)C(NC1CCC(c2c[nH]c3ccccc23)CC1)C1CCN(C(=O)/C=C/c2ccc(F)c(F)c2)CC1 (centres undefined)	1.714	
1300	NC(=O)C(NC1CCC(c2ccccc2)C1)C1CCN(C(=O)/C=C/c2cc(F)c(F)c(F)c2)CC1 (centres undefined)		
9200	O=C(/C=C/c1cc(F)c(F)c(F)c1)N1CCC(C(CO)NC2CCC(c3c[nH]c4ccccc34)CC2)CC1 (centres undefined)	0.52	
6000	NC(=O)C(NC1CCC(c2ccccc2)CC1)C1CCN(C(=O)/C=C/c2cc(F)c(F)c(F)c2)CC1 (centres undefined)	3.4	
36	NC(=O)C(NC1CCC(c2c[nH]c3ccccc23)CC1)C1CCN(C(=O)/C=C/c2ccc(F)cc2)CC1 (centres undefined)	2.02	
> 25000	NC(=O)C(NC1CCP(=O)(c2ccccc2)CC1)C1CCN(C(=O)/C=C/c2cc(F)c(F)c(F)c2)CC1 (centres undefined)		
8100	CN(C1CCC(c2c[nH]c3ccccc23)CC1)C(C(=O)O)C1CCN(C(=O)/C=C/c2cc(F)c(F)c(F)c2)CC1 (centres undefined)		
2200	NC(=O)C(NC1CCC(c2c[nH]c3cnccc23)CC1)C1CCN(C(=O)/C=C/c2cc(F)c(F)c(F)c2)CC1 (centres undefined)	< 0.2	
25000	O=C(/C=C/c1cc(F)c(F)c(F)c1)N1CCC(CNC2CCC(c3c[nH]c4ccccc34)CC2)CC1 (centres undefined)		
900	COC(=O)C(NC1CCC(c2c[nH]c3ccccc23)CC1)C1CCN(C(=O)/C=C/c2cc(F)c(F)c(F)c2)CC1 (centres undefined)	2.2	
1400	NC(=O)C(NC1Cc2ccccc2C1)C1CCN(C(=O)/C=C/c2cc(F)c(F)c(F)c2)CC1 (centres undefined)		
> 25000	NC(=O)C(NC1CCC(c2c[nH]c3ccccc23)CC1)C1CN(C(=O)/C=C/c2cc(F)c(F)c(F)c2)C1 (centres undefined)		
35	NC(=O)C(NC1CCC(c2c[nH]c3cccnc23)CC1)C1CCN(C(=O)/C=C/c2cc(F)c(F)c(F)c2)CC1 (centres undefined)	6.3	
15800	CC(C)C1CCC(NC(C(N)=O)C2CCN(C(=O)/C=C/c3cc(F)c(F)c(F)c3)CC2)CC1 (centres undefined)	6.2	
> 25000	NC(=O)C(NC1CCC(c2c[nH]c3ccccc23)CC1)C1CCN(C(=O)/C=C/c2c(F)cccc2F)CC1 (centres undefined)	3.734	
2300	NC(=O)C(NC1CCc2ccccc21)C1CCN(C(=O)/C=C/c2cc(F)c(F)c(F)c2)CC1 (centres undefined)		
50	O=C(O)C(NC1CCC(c2c[nH]c3ccccc23)CC1)C1CCN(C(=O)/C=C/c2cc(F)c(F)c(F)c2)CC1 (centres undefined)	31	
11600	CS(=O)(=O)c1ccc(/C=C/C(=O)N2CCC(C(NC3CCC(c4c[nH]c5ccccc45)CC3)C(N)=O)CC2)cc1 (centres undefined)	> 50	
